Test system: subcutaneously implanted BxPC3 tumors
Experiment: Pancreatic tumor xenograft model
Assay type: in vivo
Conditions: 10 mg/kg oral gavage everyday
Description: Briefly, In FIG. 4A 1×10^6 BxPC3 cells in 1:1 mixture of PBS and matrigel were subcutaneously implanted in the right flank of 4-6 week old female athymic nude mice (n=5). […] The treatment was given till day 40. Values are plotted as mean±SEM. FIG. 4B orthotopic tumors were aseptically removed and the tumor size was compared between control and pimavanserin treated group. In FIG. 4C mice weight was recorded once in 10 days. The average weight of the mice is plotted against days. Values are plotted as mean±SEM.
Pancreatic tumor xenograft model. Female athymic nude mice (4-6 week old) were purchased from Harlan Laboratory (Livermore, Calif.). All the experiments were performed under the strict compliance and regulations approved from Institutional Animal Care and Use Committee (IACUC), Texas Tech University Health Sciences Center, Amarillo, Tex. 1×10^6 BxPC3 cells were implanted in right flank of the mice. […] Group I was assigned as control group, which received the vehicle only (PBS). Group II mice received 10 mg/kg Pimavanserin tartrate by oral gavage everyday. Treatment with Pimavanserin was started at day 13. Tumor growth was monitored by measuring the tumor volume twice a week until day 40 using a Vernier caliper as described by the present inventors (11). The study was terminated at day 40 due to tumor burden. The mice were euthanized and the tumors were aseptically removed. A part of tumor was snap frozen for western blotting and the other part was fixed in formalin for immunohistochemistry and TUNEL analysis. Mice weight was monitored once in ten days.
Pimavanserin suppresses the growth of subcutaneously implanted pancreatic tumors. To examine the in-vivo efficacy of pimavanserin and to establish the mechanism of tumor growth inhibition in pancreatic cancer, BxPC3 cells were implanted subcutaneously in female athymic nude mice. Once the tumor volume reached 70 mm^3 in size, experimental group of mice were treated with 10 mg/kg pimavanserin by oral gavage everyday. […]

CC(C)COc1ccc(CNC(=O)N(Cc2ccc(F)cc2)C2CCN(C)CC2)cc1 [pimavanserin, N-(4-fluorophenylmethyl)-N-(1-methylpiperidin-4-yl)-N′-(4-(2-methylpropyloxy)phenylmethyl)carbamide]
average tumor volume at the day of sacrifice (day 40, control group 873.395 mm3): 429.01 mm3 | overall weight of mice vs control (general signs of toxicity) (throughout the study): similar | suppression of growth of BxPC3 tumors (vs control): 50%

Source: patent US11357766B2, “Compositions and methods for treating cancer” (Texas Tech University System, priority 2017, dated 2022)
